In patent publication US7419997B2, “Tetrahydrocarbazole derivatives and their pharmaceutical use” (SmithKline Beecham Corporation, priority 2003, dated 2008) one finds IC50 data, which are given here for 36 compounds.

Molecules are shown by their SMILES. Where only a bound is given, the exact number is not on record here.

This experiment has as its system episomal HPV16 DNA in W12-20850 cells. Kind of experiment: W-12 cellular assay (episomal HPV-16 DNA, hybrid capture). It is filed as cell-based, HPV16 (human papillomavirus). The settings on record: Human papillomavirus 16, 96 h, four days incubation, episomal HPV-16 DNA quantified by hybrid capture, inhibition relative to untreated control cells. The procedure: Compounds of the current invention are believed useful in the treatment and/or prophylaxis of conditions and diseases associated with HPV infection. Activity mediated through HPV was determined using the following W-12 cellular assay.
The W12 cell line used contains HPV16 DNA and was derived from a low-grade cervical dysplasia tissue by Margaret Stanley and subsequently clonally selected by Paul Lambert (University of Wisconsin). One of these clones, W12-20850, contains 1000 copies of episomal HPV16 DNA and was used in the cell-based assay. W12-20850 cells were routinely cultured with a gamma-irradiated (6000 rads) feeder layer of 3T3 cells. Assays, however, were run in the absence of a 3T3 feeder layer. W12-20850 and 3T3 cells were routinely split when they were sub-confluent. W12-20850 were grown in W12 Medium which is constituted of 25% DMEM (Gibco BRL, Cat # 12430-047), 75% F12 Media (Gibco BRL, Cat # 11765-021) and 2.5% FBS. The additives include […] Adenine (Sigma, Cat # A-9795), 0.4 mg/ml Hydrocortisone (Calbiochem, Cat # 386698), […] Bovine Insulin (Sigma, Cat # I-1882), 8.4 ng/ml cholera toxin (Fluka, Cat # 26694) and 10 ng/ml EGF (Invitrogen, Cat # 13247-051). 3T3 cells were grown in DMEM containing 10% FBS. Cell lines were incubated at 37° C., in the presence of 5% CO2.
For the assay, W12-20850 cells were seeded into a 96 well plate-containing compound. Plates were incubated at 37° C. in the presence of 5% CO2, for four days. On the fourth day, cells were lysed and the amount of episomal HPV-16 DNA was quantified using a non-radioactive hybrid capture technique with HPV-16 specific capture and detection probes. The percent inhibition relative to untreated control cells was then determined.
The hybrid capture assay is run in a 96 well plate format. Hybridization plates (Nunc Maxisorb Cat # 450320) were coated with a mixture of capture probe and ReactiBind solution for at least 4 hours and then washed with 0.2)(SSC, 0.05% Tween20 (SSCT) prior to blocking with 150 μl/well of 0.2 N NaOH, 1% Igepal, 10 mg/ml hsDNA for 6-8 hours. The hybridization was carried out by mixing 271 μl of lysed cells with 45 μl of denatured detection probe in 6M guanidine isothiocyanate. To prevent evaporation, 50 μl of mineral oil was added to each well. The plate was then heated to 90° C. for 6.5 minutes and the hybridization continued at 42° C. overnight. Assay plates were washed 6 times with SSC/T. Anti-digoxigenin HRP-conjugated Ab (Boehringer Mannheim 1207733, 1:5000) was incubated in the wells for 30 min at room temperature and washed with PBS/0.05% Tween-20. SuperSignal LBA substrate (Pierce Cat # 37070) was added, and chemiluminescence was measured using Wallac 1420 Victor plate reader.
As usually defined, the IC50 is the concentration needed to halve the response being measured. Higher therefore signals a need for much substance. Regarding `O=C(Nc1ccccc1)NC1CCCc2c1[nH]c1ccc(Br)cc21` (stereo not drawn) [Example 9, N-(6-Bromo-2,3,4,9-tetrahydro-1H-carbazol-1-yl)-N′-phenylurea], half-maximal inhibition (IC50) was put at 548 nM.

On to `COc1ccc(NC(=O)NC2CCCc3c2[nH]c2ccc(Br)cc32)cc1` (stereo not drawn) [Example 10, N-(6-Bromo-2,3,4,9-tetrahydro-1H-carbazol-1-yl)-N′-(4-methoxyphenyl)urea], for which the IC50 was found to be 24000 nM. Against the preceding compound, the IC50 is about 44-fold higher.

For `COc1ccc(NC(=O)NC2CCCc3c2[nH]c2ccc(Br)cc32)c(C)c1` (stereo not drawn) [Example 11, N-(6-Bromo-2,3,4,9-tetrahydro-1H-carbazol-1-yl)-N′-(4-methoxy-2-methylphenyl)urea], the IC50 was above 1000 nM.

Take `COc1ccc(NC(=O)NC2CCCc3c2[nH]c2ccc(Br)cc32)cc1Cl` (stereo not drawn) [Example 12, N-(6-Bromo-2,3,4,9-tetrahydro-1H-carbazol-1-yl)-N′-(3-chloro-4-methoxyphenyl)urea]: the IC50 was above 10000 nM.

For `CN(C)c1ccc(NC(=O)NC2CCCc3c2[nH]c2ccc(Br)cc32)cc1` (stereo not drawn) [Example 13, N-(6-Bromo-2,3,4,9-tetrahydro-1H-carbazol-1-yl)-N′-[4-(dimethylamino)phenyl]urea], half-maximal inhibition (IC50) required 237 nM.

Compound `O=C(NC1CCCc2c1[nH]c1ccc(Br)cc21)c1ccccc1` (stereo not drawn) [Example 14A, N-(6-Bromo-2,3,4,9-tetrahydro-1H-carbazol-1-yl)benzamide] displayed a concentration for half-maximal inhibition (IC50) of 32 nM.

With `O=C(N[C@@H]1CCCc2c1[nH]c1ccc(Br)cc21)c1ccccc1` [Example 14B, N-[(1R)-6-bromo-2,3,4,9-tetrahydro-1H-carbazol-1-yl]benzamide], the IC50 came to 10 nM. Compared with the last compound, the IC50 is about 3.2-fold lower.

In turn, `O=C(N[C@H]1CCCc2c1[nH]c1ccc(Br)cc21)c1ccccc1` [Example 14C, N-[(1S)-6-bromo-2,3,4,9-tetrahydro-1H-carbazol-1-yl]benzamide] showed an IC50 of 5000 nM.

In the case of `O=C(Cc1ccccc1)NC1CCCc2c1[nH]c1ccc(Br)cc21` (stereo not drawn) [Example 15, N-(6-Bromo-2,3,4,9-tetrahydro-1H-carbazol-1-yl)-2-phenylacetamide], half-maximal inhibition (IC50) was put at 580 nM.

For the compound `O=C(CCc1ccccc1)NC1CCCc2c1[nH]c1ccc(Br)cc21` (stereo not drawn) [Example 16, N-(6-Bromo-2,3,4,9-tetrahydro-1H-carbazol-1-yl)-3-phenylpropanamide], inhibition was half-maximal at 1200 nM (IC50).

On to `O=C(/C=C/c1ccccc1)NC1CCCc2c1[nH]c1ccc(Br)cc21` (stereo not drawn) [Example 17, N-(6-Bromo-2,3,4,9-tetrahydro-1H-carbazol-1-yl)-3-phenylprop-2-enamide], for which it took 318 nM to reach half-maximal inhibition (IC50).

As for `O=C(NC1CCCc2c1[nH]c1ccc(Br)cc21)OCc1ccccc1` (stereo not drawn) [Example 18, Benzyl 6-bromo-2,3,4,9-tetrahydro-1H-carbazol-1-ylcarbamate], the IC50 turned out to be 44 nM.

`O=C(NC1CCCc2c1[nH]c1ccc(Br)cc21)c1c(Cl)cccc1Cl` (stereo not drawn) [Example 19, N-(6-Bromo-2,3,4,9-tetrahydro-1H-carbazol-1-yl)-2,6-dichlorobenzamide] registered an IC50 of 5800 nM. Against the preceding compound, the IC50 is about 130-fold higher.

Take `O=C(NC1CCCc2c1[nH]c1ccc(Br)cc21)c1ccc(F)cc1` (stereo not drawn) [Example 20, N-(6-Bromo-2,3,4,9-tetrahydro-1H-carbazol-1-yl)-4-fluorobenzamide]: the IC50 was determined as 20 nM.

The compound `COc1ccc(C(=O)NC2CCCc3c2[nH]c2ccc(Br)cc32)cc1` (stereo not drawn) [Example 21, N-(6-Bromo-2,3,4,9-tetra hydro-1H-carbazol-1-yl)-4-methoxybenzamide] displayed a half-inhibitory concentration (IC50) of 22 nM.

As for `O=C(NC1CCCc2c1[nH]c1ccc(Br)cc21)c1ccc([N+](=O)[O-])cc1` (stereo not drawn) [Example 22, N-(6-Bromo-2,3,4,9-tetrahydro-1H-carbazol-1-yl)-4-nitrobenzamide], the half-inhibitory concentration (IC50) amounted to 45 nM.

`O=C(NC1CCCc2c1[nH]c1ccc(Br)cc21)c1ccc(Cl)cc1` (stereo not drawn) [Example 23, N-(6-Bromo-2,3,4,9-tetrahydro-1H-carbazol-1-yl)4-chlorobenzamide] had an IC50 of 17 nM. This IC50 lies about 2.6-fold lower than the previous one.

On to `Cc1ccc(C(=O)NC2CCCc3c2[nH]c2ccc(Br)cc32)cc1` (stereo not drawn) [Example 24, N-(6-Bromo-2,3,4,9-tetrahydro-1H-carbazol-1-yl)-4-methylbenzamide], for which the IC50 is 8 nM.

For the compound `O=C(NC1CCCc2c1[nH]c1ccc(Br)cc21)c1ccc(C(F)(F)F)cc1` (stereo not drawn) [Example 25, N-(6-Bromo-2,3,4,9-tetrahydro-1H-carbazol-1-yl)-4-(trifluoromethyl)benzamide], the IC50 was 58 nM.

Turning to `O=C(NC1CCCc2c1[nH]c1ccc(Br)cc21)c1cccc(F)c1` (stereo not drawn) [Example 26, N-(6-Bromo-2,3,4,9-tetrahydro-1H-carbazol-1-yl)-3-fluorobenzamide], inhibition was half-maximal at 14 nM (IC50).

Take `COc1cccc(C(=O)NC2CCCc3c2[nH]c2ccc(Br)cc32)c1` (stereo not drawn) [Example 27, N-(6-Bromo-2,3,4,9-tetrahydro-1H-carbazol-1-yl)-3-methoxybenzamide]: the IC50 came out at 28 nM.

Compound `Cc1cccc(C(=O)NC2CCCc3c2[nH]c2ccc(Br)cc32)c1` (stereo not drawn) [Example 28, N-(6-Bromo-2,3,4,9-tetrahydro-1H-carbazol-1-yl)-3-methylbenzamide] came in with an IC50 of 23 nM.

Compound `O=C(NC1CCCc2c1[nH]c1ccc(Br)cc21)c1ccccc1F` (stereo not drawn) [Example 29, N-(6-Bromo-2,3,4,9-tetrahydro-1H-carbazol-1-yl)-2-fluorobenzamide] showed an IC50 of 9 nM. Against the preceding compound, the IC50 is about 2.6-fold lower.

With `COc1ccccc1C(=O)NC1CCCc2c1[nH]c1ccc(Br)cc21` (stereo not drawn) [Example 30, N-(6-Bromo-2,3,4,9-tetrahydro-1H-carbazol-1-yl)-2-methoxybenzamide], the IC50 is above 10000 nM.

Consider `O=C(NC1CCCc2c1[nH]c1ccc(Br)cc21)c1ccccc1[N+](=O)[O-]` (stereo not drawn) [Example 31, N-(6-Bromo-2,3,4,9-tetrahydro-1H-carbazol-1-yl)-2-nitrobenzamide], for which the half-inhibitory concentration (IC50) was above 7300 nM.

In turn, `O=C(NC1CCCc2c1[nH]c1ccc(Br)cc21)c1ccccc1Cl` (stereo not drawn) [Example 32, N-(6-Bromo-2,3,4,9-tetrahydro-1H-carbazol-1-yl)-2-chlorobenzamide] gave an IC50 of 1400 nM. That is a single-digit micromolar value.

`Cc1ccccc1C(=O)NC1CCCc2c1[nH]c1ccc(Br)cc21` (stereo not drawn) [Example 33, N-(6-Bromo-2,3,4,9-tetrahydro-1H-carbazol-1-yl)-2-methylbenzamide] yielded a 50% inhibitory concentration (IC50) of 497 nM. This IC50 lies about 2.8-fold lower than the previous one.

The compound `O=C(NC1CCCc2c1[nH]c1ccccc21)c1ccccc1` (stereo not drawn) [Example 34, N-(2,3,4,9-Tetrahydro-1H-carbazol-1-yl)benzamide] gave an IC50 above 10000 nM.

In turn, `Cc1ccc2[nH]c3c(c2c1)CCCC3NC(=O)c1ccccc1` (stereo not drawn) [Example 35, N-(6-Methyl-2,3,4,9-tetrahydro-1H-carbazol-1-yl)benzamide] showed an IC50 of 184 nM.

As for `O=C(NC1CCCc2c1[nH]c1ccc(Cl)cc21)c1ccccc1` (stereo not drawn) [Example 36A, N-(6-Chloro-2,3,4,9-tetrahydro-1H-carbazol-1-yl)benzamide], inhibition was half-maximal at 60 nM (IC50).

In turn, `O=C(N[C@@H]1CCCc2c1[nH]c1ccc(Cl)cc21)c1ccccc1` [Example 36B, N-[(1R)-6-chloro-2,3,4,9-tetrahydro-1H-carbazol-1-yl]benzamide] registered a half-maximal inhibitory concentration (IC50) of 20 nM. This IC50 is about 3-fold lower than that of the compound before.

`O=C(N[C@H]1CCCc2c1[nH]c1ccc(Cl)cc21)c1ccccc1` [Example 36C, N-[(1S)-6-chloro-2,3,4,9-tetrahydro-1H-carbazol-1-yl]benzamide] came in with an IC50 above 10000 nM.

Take `Cc1ccc(S(=O)(=O)NC2CCCc3c2[nH]c2ccc(Br)cc32)cc1` (stereo not drawn) [Example 37, N-(6-Bromo-2,3,4,9-tetrahydro-1H-carbazol-1-yl)-4-methylbenzenesulfonamide]: the half-inhibitory concentration (IC50) was 24 nM. That is a double-digit nanomolar value.

Turning to `O=C(NC1CCCc2c1[nH]c1ccc(Br)cc21)c1ccccn1` (stereo not drawn) [Example 38, N-(6-Bromo-2,3,4,9-tetrahydro-1H-carbazol-1-yl)pyridine-2-carboxamide], the half-maximal inhibitory concentration (IC50) was below 10 nM.

Turning to `O=C(NC1CCCc2c1[nH]c1ccc(Br)cc21)c1cccnc1` (stereo not drawn) [Example 39, N-(6-Bromo-2,3,4,9-tetrahydro-1H-carbazol-1-yl)nicotinamide], the IC50 turned out to be 130 nM.

Regarding `O=C(NC1CCCc2c1[nH]c1ccc(Br)cc21)c1ccc(Cl)nc1` (stereo not drawn) [Example 40, N-(6-Bromo-2,3,4,9-tetrahydro-1H-carbazol-1-yl)-6-chloronicotinamide], half-maximal inhibition (IC50) was put at 24 nM.
